Consider 2 molecules from US20200056174A1, “COMPOSITIONS AND METHODS OF TREATING CANCER” (DANA-FARBER CANCER INSTITUTE, INC., priority 2016, published 2020).

Molecules are shown by their SMILES.

Assay [1] relates to BT-20/MUC1-C cells. As to the kind of experiment: Expression (qRT-PCR, immunoblot) in treated BT-20/MUC1-C cells. It is filed as cell-based, human. As to conditions: vs vehicle. As for the experimental part: (§1) Cell culture. Human BT-549, SUM-159 and mouse Eo771 TNBC cells were propagated in RPMI1640 medium (ATCC, Manassas, Va., USA). Human MDA-MB-468 and MDA-MB-231 TNBC cells were cultured in Dulbecco's modified Eagle's medium (DMEM) (Corning, Manassas, Va., USA). Human BT-20 TNBC cells were cultured in Eagle's Minimum Essential Medium (EMEM) (ATCC). Media were supplemented with 10% heat-inactivated fetal bovine serum, 100 units/ml penicillin, and 100 μg/ml streptomycin. Authentication of the cells was performed by short tandem repeat (STR) analysis. Cells were monitored for Mycoplasma contamination by MycoAlert® Mycoplasma Detection Kit (Lonza, Rockland, Mass., USA). BT-549 and MDA-MB-231 cells were transfected with lentiviral vectors to stably express a scrambled control shRNA (CshRNA; Sigma, St. Louis, Mo., USA) and a NF-κB p65 shRNA (Sigma). Human BT-20 and mouse Eo771 cells were stably transfected to express an empty vector or one encoding MUC1-C. […]
(§2) Quantitative real-time, reverse transcriptase PCR (qRT-PCR). […]
(§3) Immunoblot analysis. […] Immunoreactive complexes were detected using horseradish peroxidase-conjugated secondary antibodies (GE Healthcare Life Sciences, Marlborough, Mass., USA) and an enhanced chemiluminescence (ECL) detection reagents (Perkin Elmer Health Sciences, Waltham, Mass., USA). […] Lysates were analyzed using the Lightswitch Luciferase Assay Kit (Active Motif).
(In general: Quantitative PCR measures a nucleic acid by following its amplification.)

Assay [2] has as its system Eo771/MUC1-C cells. As to the kind of experiment: Expression (qRT-PCR, immunoblot) in treated Eo771/MUC1-C cells. It is filed as cell-based, mouse. As to conditions: vs vehicle. As for the experimental part: as §1, §2, §3
Assay [3] relates to BT-549 cells. As to the kind of experiment: Expression (qRT-PCR, immunoblot) in treated BT-549 TNBC cells. It is filed as cell-based, human. As to conditions: vs vehicle. As for the experimental part: as §1, §2, §3
Assay [4] has as its system H460 cells. The assay is described as follows: Gene expression (qRT-PCR) in treated H460 NSCLC cells. The settings on record: 5 μM BAY-11-7085, 18 h, vs DMSO. It is filed as cell-based, human. On the procedure:
(§4) Cell culture. Human A549/KRAS(G12S), H460/KRAS(Q61H) and H1975/EGFR(L858R/T790M) NSCLC cells (ATCC) were grown in RPMI1640 medium supplemented with 10% heat-inactivated fetal bovine serum (HI-FBS), 100 μg/ml streptomycin, 100 units/ml penicillin and 2 mM L-glutamine. Authentication of the cells was performed by short tandem repeat (STR) analysis. Cells were transfected with lentiviral vectors to stably express a scrambled control shRNA (CshRNA; Sigma), a MUC1 shRNA (MUC1shRNA; Sigma), a NF-κB p65 shRNA (Sigma), MUC1-C or MUC1-C (AQA) (27, 8, 49). Cells were treated with the IκB inhibitor BAY-11-7085 (Sigma) or DMSO as the vehicle control. Cells were also treated with empty nanoparticles (NPs) or GO-203/NPs (39).
(§5) Quantitative real-time, reverse transcriptase PCR (qRT-PCR). Whole cell RNA was isolated using the RNeasy mini kit (Qiagen). The High Capacity cDNA Reverse Transcription kit (Life Technologies) was used to synthesize cDNAs from 2 μg RNA. The SYBR green qPCR assay kit and the ABI Prism Sequence Detector (Applied Biosystems) were used to amplify the cDNAs.
(§6) Immunoblot analysis. Whole cell lysates were prepared in NP-40 lysis buffer and immunoblotted with antibodies against MUC1-C (LabVision), PD-L1 (Cell Signaling Technology) and β-actin (Sigma). Horseradish peroxidase secondary antibodies and enhanced chemiluminescence (GE Healthcare) were used for the detection of immune complexes.

Assay [5] has as its system H1975 cells. As to the kind of experiment: Gene expression (qRT-PCR) in treated H1975 NSCLC cells. It is filed as cell-based, human. As to conditions: 5 μM BAY-11-7085, 18 h, vs DMSO. As for the experimental part: as §4, §5, §6

`CC(C)(C)c1ccc(S(=O)(=O)/C=C/C#N)cc1` [BAY-11-7085]: the PD-L1 expression entry in assay [1] (5 μM BAY-11-7085, 24 h) is “suppression of PD-L1 expression”; in assay [3] (5 μM BAY-11-7085, 24 h), “suppression of PD-L1 expression”. In assay [2] (5 μM BAY-11-7085, 24 h), the “MUC1-C→PD-L1 response (PD-L1 mRNA and protein)” value was “inhibited”. Further, the “PD-L1 expression (mRNA, qRT-PCR)” value in assay [4] and in assay [5] was “suppresses PD-L1 expression” in each case. Also, the “TLR7 mRNA levels” value in assay [4] and in assay [5] was “decreases in TLR7 mRNA levels” in each case.

As to `Cc1sc2c(c1C)C(c1ccc(Cl)cc1)=N[C@@H](CC(=O)OC(C)(C)C)c1nnc(C)n1-2` [JQ1], the PD-L1 expression result in assay [1] (5 μM JQ1, 48 h) was “downregulation of PD-L1 expression”; in assay [3] (5 μM JQ1, 48 h) it was “downregulation of PD-L1 expression”. For the same molecule, the “MUC1-C→PD-L1 response (PD-L1 mRNA and protein)” value in assay [2] (5 μM JQ1, 48 h) was “inhibited”.
